The values below are quoted from earlier work in PMC8287861 (Frontiers in Microbiology, 2021).

The subject of series [1] is Pseudomonas aeruginosa. Details: method as in Lomovskaya et al. (2021). Particulars: ref Lomovskaya et al. (2021); for MIC50 / MIC90: challenge panel, QPX7728 at 8 μg/ml.
In series [2] the test system is isogenic strains of P. aeruginosa that produced KPC. Set-up: method as in Lomovskaya et al., 2020a. The settings on record: ref Lomovskaya et al., 2020a.
In series [3] the test system is KPC-producing strains of Klebsiella pneumoniae and blaKPC mutants. Details: method as in Nelson et al., 2019. Particulars: ref Nelson et al., 2019.
The test system of series [4] is Pseudomonas aeruginosa. Set-up: method as in Lomovskaya et al. (2021). The settings on record: panel reflecting current MIC distribution (N = 500); QPX7728 at 8 μg/ml; ref Lomovskaya et al. (2021).
For series [5], the system named is Enterobacterales producing ESBLs and carbapenemases. Set-up: method as in Rubio-Aparicio et al., 2019. Particulars: ref Rubio-Aparicio et al., 2019.

Structures are written as SMILES. Converted amounts (≈) assume the structure as drawn. Like-named read-outs stand apart in the source and are kept apart here.

Usually MIC50 stands for an inhibitory concentration at the 50% level, which refers to growth in some studies and to a panel of isolates in others. Broadly, the MIC90 is the lowest concentration that inhibits either 90% of growth or 90% of the strains tested, depending on the study. Take `C[C@H]1[C@H](NC(=O)/C(=N\OC(C)(C)C(=O)O)c2csc(N)n2)C(=O)N1S(=O)(=O)O` [Aztreonam, aztreonam]: the MIC50 in series [1] (All (N = 290)), in series [1] (MBL (N = 61)) and in series [1] (No MBL (N = 229)) was 32 µg/mL (≈ 73.5 µM) each time. The MIC90 in series [1] (All (N = 290)), in series [1] (MBL (N = 61)) and in series [1] (No MBL (N = 229)) was more than 64 µg/mL each time.

Regarding `C[C@@H](O)[C@H]1C(=O)N2C(C(=O)[O-])=C(SC3Cn4cnc[n+]4C3)[C@H](C)[C@H]12` (some centres unmarked) [Biapenem], the “Biapenem MIC” value in series [2] (PAM4126, mexR (MexAB-OprM)) was 64 µg/mL; in series [2] (PAM4129, nfxB (MexCD-OprJ)) it was 8 µg/mL; in series [2] (PAM4132, mexT (MexEF-OprM)) it was 128 µg/mL; in series [2] (PAM4150, mexZ (MexXY-OprM)), 64 µg/mL; in series [2] (PAM4224, Wild-type), 64 µg/mL; in series [2] (PAM4365, MexA::Tet), 64 µg/mL. Besides, the “MIC of the vector only strain” value in series [2] (vector only counterpart of PAM4126, mexR (MexAB-OprM)) is 0.125 µg/mL; in series [2] (vector only counterpart of PAM4129, nfxB (MexCD-OprJ)) it was 0.03 µg/mL; in series [2] (vector only counterpart of PAM4132, mexT (MexEF-OprM)) it was 0.5 µg/mL; in series [2] (vector only counterpart of PAM4150, mexZ (MexXY-OprM)) it was 0.25 µg/mL; in series [2] (vector only counterpart of PAM4224, Wild-type), 0.25 µg/mL; in series [2] (vector only counterpart of PAM4365, MexA::Tet), 0.25 µg/mL.

Broadly, the MIC is the smallest concentration in the dilution series that meets the test's criterion for growth inhibition. Consider `CO/N=C(\C(=O)N[C@@H]1C(=O)N2C(C(=O)[O-])=C(C[N+]3(C)CCCC3)CS[C@H]12)c1csc(N)n1` [Cefepime, cefepime], for which the MIC in series [3] (KP1074, KPC-3, SHV-11, TEM-1/GD) was more than 128 µg/mL; in series [3] (KP1099, KPC-2, SHV-11, SHV-12, CTX-M-14/GD), more than 128 µg/mL; in series [3] (KP1102, KPC-3, TEM-1, SHV-11/GD), more than 128 µg/mL; in series [3] (KP1246, KPC-3, SHV-12, SHV-11/FL), 128 µg/mL (≈ 266 µM); in series [3] (KP1252, KPC-3, TEM-1, SHV-11/FL) it was more than 128 µg/mL; in series [3] (KP1317, KPC-3, TEM-1, SHV-11/GD), more than 128 µg/mL. The MIC in series [3] (KP1500, KPC-3, TEM-1, SHV-11, CTX-M-15 OXA-1 OXA-9/IS at −48) is more than 128 µg/mL; in series [3] (KPM3191, KPC-3:: DDK duplication at aa#831 (KPC-29)), 64 µg/mL (≈ 133 µM); in series [3] (KPM3192, KPC-3:: D179Y (KPC-31)), 32 µg/mL (≈ 66.6 µM); in series [3] (KPM3200, KPC-3::duplication of EAVI (aa#278)), more than 128 µg/mL; in series [3] (KPM3205, KPC-3 ::duplication of KKDY (aa#273)), 128 µg/mL (≈ 266 µM); in series [3] (KPM3210, KPC-2::D179N) it was 128 µg/mL (≈ 266 µM). Besides, the MIC in series [3] (KPM3212, deletion of ELNSAI at aa#497) was 128 µg/mL (≈ 266 µM); in series [3] (KPM3213, KPC-2::D179Y (KPC-31), selected from KP1099), more than 128 µg/mL; in series [3] (KPM3214, KPC-2::D179A), 128 µg/mL (≈ 266 µM); in series [3] (KPM3493, KPC-3::duplication of EL at aa#164 (KPC-25)), 32 µg/mL (≈ 66.6 µM); in series [3] (KPM3494, KPC-3::R167S) it was 128 µg/mL (≈ 266 µM); in series [3] (KPM3495, KPC-3::A175V) it was more than 128 µg/mL. The MIC in series [3] (KPM3511, KPC-3::P174Q) is 64 µg/mL (≈ 133 µM); in series [3] (KPM3512, KPC-3:: P174L), 16 µg/mL (≈ 33.3 µM); in series [3] (KPM3517, KPC-3::D179Y (KPC-31)), more than 128 µg/mL; in series [3] (KPM3520, Both WT and mutant KPC-3::duplication of 8aa (aa#264–271)), more than 128 µg/mL; in series [3] (KPM3523, Both WT and mutant KPC-3:: deletion of EL (aa#241–242)), 128 µg/mL (≈ 266 µM); in series [3] (KPM3546, KPC-3::R164H), more than 128 µg/mL. Further, the MIC50 in series [4] is 4 µg/mL (≈ 8.32 µM); in series [1] (All (N = 290)), 32 µg/mL (≈ 66.6 µM); in series [1] (MBL (N = 61)) it was 64 µg/mL (≈ 133 µM); in series [1] (No MBL (N = 229)), 32 µg/mL (≈ 66.6 µM). For the same molecule, the MIC90 is 32 µg/mL (≈ 66.6 µM) in series [4], 64 µg/mL (≈ 133 µM) in series [1] (All (N = 290)), 64 µg/mL (≈ 133 µM) in series [1] (MBL (N = 61)) and 64 µg/mL (≈ 133 µM) in series [1] (No MBL (N = 229)). Moreover, in series [1] (challenge panel (N = 290), with QPX7728, 8 or 16 μg/ml for cefepime and piperacillin, respectively), the “% of isolates shifted by QPX7728 at or below breakpoint” value is given as 70.3%.

As for `COCC1=C(C(=O)O)N2C(=O)[C@@H](NC(=O)/C(=N\OC)c3csc(N)n3)[C@H]2SC1` [Cefpodoxime], the MIC50 in series [5] (All Enterobacterales (N = 972)) is reported as >64/>64 μg/ml; in series [5] (CRE KPC (N = 292)), >64/>64 μg/ml; in series [5] (CRE MBL (N = 226)), >64/>64 μg/ml; in series [5] (CRE OXA-48 (N = 47)), >64/>64 μg/ml; in series [5] (ESBLs, no CRE (N = 371)) it was >64/>64 μg/ml; in series [5] (Non-CP CRE) it was >64/>64 μg/ml. The MIC90 is recorded as >64/>64 μg/ml in series [5] (All Enterobacterales (N = 972)); >64/>64 μg/ml in series [5] (CRE KPC (N = 292)); >64/>64 μg/ml in series [5] (CRE MBL (N = 226)); >64/>64 μg/ml in series [5] (CRE OXA-48 (N = 47)); >64/>64 μg/ml in series [5] (ESBLs, no CRE (N = 371)); >64/>64 μg/ml in series [5] (Non-CP CRE).

In the case of `Nc1nc(/C(=C/CC(=O)O)C(=O)N[C@@H]2C(=O)N3C(C(=O)O)=CCS[C@H]23)cs1` [Ceftibuten], the MIC50 in series [5] (All Enterobacterales (N = 972)) was 32 µg/mL (≈ 78 µM); in series [5] (CRE KPC (N = 292)), 16 µg/mL (≈ 39 µM); in series [5] (CRE MBL (N = 226)), >64/>64 μg/ml; in series [5] (CRE OXA-48 (N = 47)), 64/>64 μg/ml; in series [5] (ESBLs, no CRE (N = 371)) it was 8 µg/mL (≈ 19.5 µM); in series [5] (Non-CP CRE) it was >64/>64 μg/ml. The MIC90 in series [5] (All Enterobacterales (N = 972)) was more than 64 µg/mL; in series [5] (CRE KPC (N = 292)) it was more than 64 µg/mL; in series [5] (CRE MBL (N = 226)), >64/>64 μg/ml; in series [5] (CRE OXA-48 (N = 47)), 64/>64 μg/ml; in series [5] (ESBLs, no CRE (N = 371)), more than 64 µg/mL; in series [5] (Non-CP CRE) it was >64/>64 μg/ml.

Regarding `Cn1c(N)c(NC(=O)NCCN)c[n+]1CC1=C(C(=O)O)N2C(=O)[C@@H](NC(=O)/C(=N\OC(C)(C)C(=O)[O-])c3nsc(N)n3)[C@H]2SC1` [Ceftolozane, ceftolozane], the MIC50 was 0.5 µg/mL (≈ 0.75 µM) in series [4], 4 µg/mL (≈ 6 µM) in series [1] (All (N = 290)), more than 64 µg/mL in series [1] (MBL (N = 61)) and 2 µg/mL (≈ 3 µM) in series [1] (No MBL (N = 229)). Moreover, the MIC90 was 4 µg/mL (≈ 6 µM) in series [4], more than 64 µg/mL in series [1] (All (N = 290)), more than 64 µg/mL in series [1] (MBL (N = 61)) and more than 64 µg/mL in series [1] (No MBL (N = 229)).

`C[C@@H](O)[C@H]1C(=O)N2C(C(=O)O)=C(SC3CN(C4=NCCS4)C3)[C@H](C)[C@H]12` [Tebipenem]: the MIC50 in series [5] (All Enterobacterales (N = 972)) is 0.25 µg/mL (≈ 0.652 µM); in series [5] (CRE KPC (N = 292)), 64/>64 μg/ml; in series [5] (CRE MBL (N = 226)) it was 32 µg/mL (≈ 83.4 µM); in series [5] (CRE OXA-48 (N = 47)) it was 32 µg/mL (≈ 83.4 µM); in series [5] (ESBLs, no CRE (N = 371)), not above 0.06 µg/mL; in series [5] (Non-CP CRE), 8 µg/mL (≈ 20.9 µM). The MIC90 in series [5] (All Enterobacterales (N = 972)) is more than 64 µg/mL; in series [5] (CRE KPC (N = 292)), 64/>64 μg/ml; in series [5] (CRE MBL (N = 226)) it was more than 64 µg/mL; in series [5] (CRE OXA-48 (N = 47)), 64 µg/mL (≈ 167 µM); in series [5] (ESBLs, no CRE (N = 371)) it was 0.5 µg/mL (≈ 1.3 µM); in series [5] (Non-CP CRE) it was 16 µg/mL (≈ 41.7 µM).
